The supplement of paper PMC10307832

Legend:
Assay in all cases: relative viability (nuclei count vs DMSO), 5 days (fraction); higher = more cells survive
NCI-H2228 = system: NCI-H2228
In short: (§1)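 Each reported value is a median over duplicate plates. It expresses relative viability: treated-well nuclei count divided by vehicle-well nuclei count. Lung cancer cell lines in 1536-well plates were dosed by pin tool a day after seeding, alone with one drug or with a fixed anchor-drug dose plus five library-drug doses (not always all listed) in √10 steps, and nuclei were counted after 5 days.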

H3255 = system: H3255
In short: as §1

NCI-H1355 = system: NCI-H1355
In short: as §1

HCC-15 = system: HCC-15
In short: as §1

HCC-827 = system: HCC-827
In short: as §1

NCI-H1563 = system: NCI-H1563
In short: as §1

NCI-H2405 = system: NCI-H2405
In short: as §1

COR-L23 = system: COR-L23
In short: as §1

NCI-H322M = system: NCI-H322M
In short: as §1

EKVX = system: EKVX
In short: as §1

PC-14 = system: PC-14
In short: as §1

ABC-1 = system: ABC-1
In short: as §1

NCI-H1734 = system: NCI-H1734
In short: as §1

NCI-H1650 = system: NCI-H1650
In short: as §1

NCI-H520 = system: NCI-H520
In short: as §1

CAL-12T = system: CAL-12T
In short: as §1

RERF-LC-KJ = system: RERF-LC-KJ
In short: as §1

NCI-H1437 = system: NCI-H1437
In short: as §1

PC-3 [JPC-3] = system: PC-3 [JPC-3]
In short: as §1

SW 1573 = system: SW 1573
In short: as §1

NCI-H661 = system: NCI-H661
In short: as §1

Oc1nc(-c2ccc(C(F)(F)F)cc2)nc2c1CSCC2 [XAV939] + CC(C)C[C@H](NC(=O)[C@H](Cc1ccccc1)NC(=O)c1cnccn1)B(O)O [Bortezomib] (partner 0.002 µM)
relative viability (NCI-H2228; first compound 0.08 µM): 1.31
relative viability (NCI-H2228; first compound 0.253 µM): 0.711
relative viability (NCI-H2228; first compound 0.8 µM): 1.01
relative viability (NCI-H2228; first compound 2.53 µM): 0.861
relative viability (H3255; first compound 0.08 µM): 1.05
relative viability (H3255; first compound 0.253 µM): 0.716
relative viability (H3255; first compound 0.8 µM): 0.62
relative viability (H3255; first compound 2.53 µM): 0.853
relative viability (NCI-H1355; first compound 0.08 µM): 1.17
relative viability (NCI-H1355; first compound 0.253 µM): 1.06
relative viability (NCI-H1355; first compound 0.8 µM): 1.21
relative viability (NCI-H1355; first compound 2.53 µM): 0.81
relative viability (HCC-15; first compound 0.08 µM): 1.2
relative viability (HCC-15; first compound 0.253 µM): 0.938
relative viability (HCC-15; first compound 0.8 µM): 1.05
relative viability (HCC-15; first compound 2.53 µM): 1.06
relative viability (HCC-827; first compound 0.08 µM): 1.03
relative viability (HCC-827; first compound 0.253 µM): 0.868
relative viability (HCC-827; first compound 0.8 µM): 1.07
relative viability (HCC-827; first compound 2.53 µM): 1.09
relative viability (NCI-H1563; first compound 0.08 µM): 0.835
relative viability (NCI-H1563; first compound 0.253 µM): 0.81
relative viability (NCI-H1563; first compound 0.8 µM): 0.798
relative viability (NCI-H1563; first compound 2.53 µM): 0.764
relative viability (NCI-H2405; first compound 0.08 µM): 1.04
relative viability (NCI-H2405; first compound 0.253 µM): 0.719
relative viability (NCI-H2405; first compound 0.8 µM): 0.893
relative viability (NCI-H2405; first compound 2.53 µM): 0.959
relative viability (COR-L23; first compound 0.08 µM): 1.03
relative viability (COR-L23; first compound 0.253 µM): 0.994
relative viability (COR-L23; first compound 0.8 µM): 1.05
relative viability (COR-L23; first compound 2.53 µM): 0.855
relative viability (NCI-H322M; first compound 0.08 µM): 1.39
relative viability (NCI-H322M; first compound 0.253 µM): 0.996
relative viability (NCI-H322M; first compound 0.8 µM): 1.1
relative viability (NCI-H322M; first compound 2.53 µM): 0.976
relative viability (EKVX; first compound 0.08 µM): 1.12
relative viability (EKVX; first compound 0.253 µM): 0.882
relative viability (EKVX; first compound 0.8 µM): 0.773
relative viability (EKVX; first compound 2.53 µM): 0.573
relative viability (PC-14; first compound 0.08 µM): 0.825
relative viability (PC-14; first compound 0.253 µM): 0.808
relative viability (PC-14; first compound 0.8 µM): 0.846
relative viability (PC-14; first compound 2.53 µM): 0.794
relative viability (ABC-1; first compound 0.08 µM): 0.315
relative viability (ABC-1; first compound 0.253 µM): 0.307
relative viability (ABC-1; first compound 0.8 µM): 0.254
relative viability (ABC-1; first compound 2.53 µM): 0.252
relative viability (NCI-H1734; first compound 0.08 µM): 1.04
relative viability (NCI-H1734; first compound 0.253 µM): 0.907
relative viability (NCI-H1734; first compound 0.8 µM): 0.709
relative viability (NCI-H1734; first compound 2.53 µM): 0.86
relative viability (NCI-H1650; first compound 0.08 µM): 0.178
relative viability (NCI-H1650; first compound 0.253 µM): 0.211
relative viability (NCI-H1650; first compound 0.8 µM): 0.222
relative viability (NCI-H1650; first compound 2.53 µM): 0.215
relative viability (NCI-H520; first compound 0.08 µM): 0.612
relative viability (NCI-H520; first compound 0.253 µM): 0.317
relative viability (NCI-H520; first compound 0.8 µM): 0.659
relative viability (NCI-H520; first compound 2.53 µM): 0.368
relative viability (CAL-12T; first compound 0.08 µM): 0.981
relative viability (CAL-12T; first compound 0.253 µM): 0.856
relative viability (CAL-12T; first compound 0.8 µM): 0.89
relative viability (CAL-12T; first compound 2.53 µM): 0.977
relative viability (RERF-LC-KJ; first compound 0.08 µM): 0.864
relative viability (RERF-LC-KJ; first compound 0.253 µM): 0.98
relative viability (RERF-LC-KJ; first compound 0.8 µM): 0.886
relative viability (RERF-LC-KJ; first compound 2.53 µM): 0.744
relative viability (NCI-H1437; first compound 0.08 µM): 0.641
relative viability (NCI-H1437; first compound 0.253 µM): 0.548
relative viability (NCI-H1437; first compound 0.8 µM): 0.512
relative viability (NCI-H1437; first compound 2.53 µM): 0.376
relative viability (PC-3 [JPC-3]; first compound 0.08 µM): 0.839
relative viability (PC-3 [JPC-3]; first compound 0.253 µM): 0.722
relative viability (PC-3 [JPC-3]; first compound 0.8 µM): 0.831
relative viability (PC-3 [JPC-3]; first compound 2.53 µM): 0.755
relative viability (SW 1573; first compound 0.08 µM): 0.994
relative viability (SW 1573; first compound 0.253 µM): 1.01
relative viability (SW 1573; first compound 0.8 µM): 1.1
relative viability (SW 1573; first compound 2.53 µM): 0.676
relative viability (NCI-H661; first compound 0.08 µM): 0.866
relative viability (NCI-H661; first compound 0.253 µM): 0.707
relative viability (NCI-H661; first compound 0.8 µM): 0.95
relative viability (NCI-H661; first compound 2.53 µM): 0.495
